{"source": "patent US11299760B2", "about": "(Amgen Inc., priority 2013, dated 2022)", "key": {"[1]": {"tested_on": "recombinant cell line producing MAb E", "assay": "ATF bioreactors, high mannose analysis (RP-HPLC/MS)", "type": "cell-based", "description": "The applicability of using monensin to modulate high mannose levels in a large scale, controlled production setting was evaluated using a recombinant cell line producing MAb E in alternating tangential flow (ATF) bioreactors. MAb E cells grown in growth medium for the seed train were used to inoculate the N-1 bioreactor at 6×10^5 cells/ml in growth medium. The cells from N-1 bioreactor were then used to inoculate three, 2 L production bioreactors (N) at 7.5×10^5 cells/ml in base perfusion medium (referred to as control, Ra, and Rb bioreactors).\nThe production bioreactors were grown for 20 days at pH 7.00, 36° C., 30% DO and 400 rpm agitation. These production tanks were run with the ATF system starting on day 3 with 0.5 vol/day perfusion rate, which was increased to 0.6 vol/day, 0.8352 vol/day and 1 vol/day on day 6, 7 and 8, respectively. Glucose levels were maintained separately at 5 g/L since the perfusion medium was prepared without glucose.\nAntifoam was also added into the tank as needed, while 1M Sodium Carbonate was used to maintain pH at the desired setpoint. Daily tank samples were collected for the measurement of various cell culture parameters as well as for the titer and high mannose analyses.\nSixty micrograms of daily MAb E samples collected from ATF bioreactors were digested into the Fc/2 and Fab′2 with 60 units of the IdeS enzyme (fabRICATOR, Genovis, Lund, Sweden) in 50 mM Sodium Phosphate, 150 mM NaCl, pH 6.6 with incubation in a 37° C. water bath for 30 minutes. The digested samples were then reduced in 4M Guanidine Hydrochloride 50 mM Tris, pH 8.3 with 50 mM DTT followed by incubation in a 55° C. heat block for 10 minutes resulting in reduction to Fc/2, LC and Fd.\nFollowing digestion and reduction, samples were analyzed immediately by RP-HPLC/MS.\nAnalysis was performed using Waters Acquity Ultra-Performance liquid chromatography (UPLC) system (Waters, Milford, Mass.) coupled to an Agilent MST Time of Flight (TOF) mass spectrometer (Agilent Technologies, Santa Clara, Calif.). The digested and reduced samples were separated on a reversed-phased Waters BEH Phenyl column (1.7 micron particle size, 2.1×150 mm; Waters, Milford, Mass.) maintained at 80° C. […]\nFive micrograms of each sample was injected and eluted at a flow rate of 0.5 mL/min with the following gradient: 30% B was held for 2.5 minutes followed by a gradient from 30% to 45% B over a duration of 5 minutes, followed by a gradient from 45% to 100% B over 0.5 minutes; B was held at 100% for 4 minutes, followed by a gradient of 100% to 30% B over 0.1 minutes, and then held at 30% B for the remaining 2.9 minutes. The UV elution was also monitored at a wavelength of 220 nm. […] Ion intensities of the deconvoluted peaks were used for quantification of the glycan species."}, "Cells producing MAb D": {"tested_on": "Cells producing MAb D", "assay": "mock perfusion assay, glycan analysis", "type": "cell-based, Chinese hamster", "details": "for Man5 / Man6 / Man7 / Man8a / Man8b / Man9: day 10", "description": "(§1) Mock perfusion assay is a small scale, plate-based assay that is designed to mimic perfusion conditions in bioreactors through daily medium exchanges. For a 10-day mock perfusion assay, passaging cultures of various production cell lines were diluted 1:5 into chemically defined base perfusion medium in a 24 deep-well plate at a final volume of 3 ml per well. Mock perfusion was initiated on day 3 when the cells were spun down at 1000 rpm for 5 minutes and 25% of each spent culture medium was exchanged with the equivalent volume of fresh perfusion media. Subsequent medium exchange percentages were 40% on days 4-8 and 50% on day 9. Exchanged supernatants were stored at 4° C. prior to analysis.\n(§2) Analysis of cell culture parameters was also started on day 3; viable cell density and viability were analyzed using the ViaCount Guava assay as previously described. Glucose was measured daily starting on day 3 and was maintained at 12 g/l. Stored supernatants were analyzed for antibody titer as described previously. Samples of supernatant fluid from days 6, 8 and 10 were also analyzed for the presence and type of glycans by HILIC analysis.\n(§3) The cell lines used included three production cell lines that are known to generate mAbs with low high mannose glycans (MAb A, MAb B and MAb C) and one production cell line that consistently produces product with high levels of high mannose glycans (MAb D). […] Equivalent volumes of methanol were added daily to control cultures (columns 1 and 2 of the 24-well plate). This scheme is depicted below:\n(§4) Total high mannose values (Total HM column) and the corresponding distributions into high mannose species from Man5 through Man9 were determined for purified antibody samples collected on day 10. Each value shown in Table 4 represents an average of duplicates."}, "Cells producing MAb B": {"tested_on": "Cells producing MAb B", "assay": "mock perfusion assay, glycan analysis", "type": "cell-based, Chinese hamster", "details": "for Man5 / Man6 / Man7 / Man8a / Man8b / Man9: day 10", "description": "as §1, §2, §3, §4"}, "Cells producing MAb A": {"tested_on": "Cells producing MAb A", "assay": "mock perfusion assay, glycan analysis", "type": "cell-based, Chinese hamster", "details": "for Man5 / Man6 / Man7 / Man8a / Man8b / Man9: day 10", "description": "as §1, §2, §3, §4"}, "[2]": {"details": "500 nM monensin for ~22 hours from day 8, MAb E"}, "[3]": {"details": "constant monensin 25 nM from day 3, Day 6"}, "[4]": {"details": "constant monensin 25 nM from day 3, Day 8"}, "[5]": {"details": "constant monensin 25 nM from day 3, Day 10"}, "[6]": {"details": "increasing monensin (25 nM day 4, 50 nM days 5-6, 100 nM days 7-9), Day 6"}, "[7]": {"details": "increasing monensin (25 nM day 4, 50 nM days 5-6, 100 nM days 7-9), Day 8"}, "[8]": {"details": "increasing monensin (25 nM day 4, 50 nM days 5-6, 100 nM days 7-9), Day 10"}, "[9]": {"details": "increasing monensin (to 100 nM)"}}, "data": [{"compound": "CC[C@@]1([C@@H]2O[C@@H]([C@H]3O[C@@](O)(CO)[C@H](C)C[C@@H]3C)C[C@@H]2C)CC[C@H]([C@]2(C)CC[C@]3(C[C@H](O)[C@@H](C)[C@@H]([C@@H](C)[C@@H](OC)[C@H](C)C(=O)O)O3)O2)O1", "note": "[monensin]", "values": [{"measurement": "high mannose levels, initial spike", "setting": "[1]; [2]", "value": "35-50%"}, {"measurement": "increase in the levels of high mannose glycans on the recombinant antibodies", "setting": "[1]; [2]", "value": "9-10 fold"}, {"measurement": "high mannose levels on the day of the harvest", "setting": "[1]; after flushing out of monensin by perfusion, MAb E", "value": "15-17%"}, {"measurement": "produced antibodies containing high mannose glycans at peak", "setting": "[1]; day 10, 500 nM monensin for ~22 hours from day 8, from predicted and measured levels", "value": 89, "unit": "%"}, {"measurement": "Total HM", "setting": "Cells producing MAb D; [3]", "value": 70.6, "unit": "%"}, {"measurement": "Total HM", "setting": "Cells producing MAb D; [4]", "value": 80.1, "unit": "%"}, {"measurement": "Total HM", "setting": "Cells producing MAb D; [5]", "value": 72.6, "unit": "%"}, {"measurement": "Man5", "setting": "Cells producing MAb D; constant monensin 25 nM", "value": 30.4, "unit": "%"}, {"measurement": "Man6", "setting": "Cells producing MAb D; constant monensin 25 nM", "value": 14.7, "unit": "%"}, {"measurement": "Man7", "setting": "Cells producing MAb D; constant monensin 25 nM", "value": 15.3, "unit": "%"}, {"measurement": "Man8a", "setting": "Cells producing MAb D; constant monensin 25 nM", "value": 0.7, "unit": "%"}, {"measurement": "Man8b", "setting": "Cells producing MAb D; constant monensin 25 nM", "value": 10.1, "unit": "%"}, {"measurement": "Man9", "setting": "Cells producing MAb D; constant monensin 25 nM", "value": 1.4, "unit": "%"}, {"measurement": "high mannose species upregulated", "setting": "Cells producing MAb D; increasing dose of monensin", "value": "primarily upregulated Man7 and Man8(b) high mannose glycans"}, {"measurement": "Total HM", "setting": "Cells producing MAb D; [6]", "value": 83.0, "unit": "%"}, {"measurement": "Total HM", "setting": "Cells producing MAb D; [7]", "value": 92.5, "unit": "%"}, {"measurement": "Total HM", "setting": "Cells producing MAb D; [8]", "value": 94.9, "unit": "%"}, {"measurement": "Man5", "setting": "Cells producing MAb D; [9]", "value": 12.8, "unit": "%"}, {"measurement": "Man6", "setting": "Cells producing MAb D; [9]", "value": 14.9, "unit": "%"}, {"measurement": "Man7", "setting": "Cells producing MAb D; [9]", "value": 27.2, "unit": "%"}, {"measurement": "Man8a", "setting": "Cells producing MAb D; [9]", "value": 0.8, "unit": "%"}, {"measurement": "Man8b", "setting": "Cells producing MAb D; [9]", "value": 34.3, "unit": "%"}, {"measurement": "Man9", "setting": "Cells producing MAb D; [9]", "value": 5.0, "unit": "%"}, {"measurement": "Total HM", "setting": "Cells producing MAb B; [3]", "value": 9.6, "unit": "%"}, {"measurement": "Total HM", "setting": "Cells producing MAb B; [4]", "value": 4.6, "unit": "%"}, {"measurement": "Total HM", "setting": "Cells producing MAb B; [5]", "value": 4.0, "unit": "%"}, {"measurement": "Man5", "setting": "Cells producing MAb B; constant monensin 25 nM", "value": 2.2, "unit": "%"}, {"measurement": "Man6", "setting": "Cells producing MAb B; constant monensin 25 nM", "value": 0.7, "unit": "%"}, {"measurement": "Man7", "setting": "Cells producing MAb B; constant monensin 25 nM", "value": 0.5, "unit": "%"}, {"measurement": "Man8a", "setting": "Cells producing MAb B; constant monensin 25 nM", "value": 0.3, "unit": "%"}, {"measurement": "Man8b", "setting": "Cells producing MAb B; constant monensin 25 nM", "value": 0.3, "unit": "%"}, {"measurement": "Man9", "setting": "Cells producing MAb B; constant monensin 25 nM", "value": 0.0, "unit": "%"}, {"measurement": "Total HM", "setting": "Cells producing MAb B; [6]", "value": 13.2, "unit": "%"}, {"measurement": "Total HM", "setting": "Cells producing MAb B; [7]", "value": 12.4, "unit": "%"}, {"measurement": "Total HM", "setting": "Cells producing MAb B; [8]", "value": 14.0, "unit": "%"}, {"measurement": "Man5", "setting": "Cells producing MAb B; [9]", "value": 7.7, "unit": "%"}, {"measurement": "Man6", "setting": "Cells producing MAb B; [9]", "value": 3.0, "unit": "%"}, {"measurement": "Man7", "setting": "Cells producing MAb B; [9]", "value": 2.0, "unit": "%"}, {"measurement": "Man8a", "setting": "Cells producing MAb B; [9]", "value": 0.3, "unit": "%"}, {"measurement": "Man8b", "setting": "Cells producing MAb B; [9]", "value": 0.9, "unit": "%"}, {"measurement": "Man9", "setting": "Cells producing MAb B; [9]", "value": 0.1, "unit": "%"}, {"measurement": "Total HM", "setting": "Cells producing MAb A; [3]", "value": 55.7, "unit": "%"}, {"measurement": "Total HM", "setting": "Cells producing MAb A; [4]", "value": 19.7, "unit": "%"}, {"measurement": "Total HM", "setting": "Cells producing MAb A; [5]", "value": 9, "unit": "%"}, {"measurement": "Man5", "setting": "Cells producing MAb A; constant monensin 25 nM", "value": 5.6, "unit": "%"}, {"measurement": "Man6", "setting": "Cells producing MAb A; constant monensin 25 nM", "value": 1.2, "unit": "%"}, {"measurement": "Man7", "setting": "Cells producing MAb A; constant monensin 25 nM", "value": 1.0, "unit": "%"}, {"measurement": "Man8a", "setting": "Cells producing MAb A; constant monensin 25 nM", "value": 0.4, "unit": "%"}, {"measurement": "Man8b", "setting": "Cells producing MAb A; constant monensin 25 nM", "value": 0.6, "unit": "%"}, {"measurement": "Man9", "setting": "Cells producing MAb A; constant monensin 25 nM", "value": 0.2, "unit": "%"}, {"measurement": "Total HM", "setting": "Cells producing MAb A; increasing monensin (25 nM day 4, 50 nM days 5-9), Day 6", "value": 61.9, "unit": "%"}, {"measurement": "Total HM", "setting": "Cells producing MAb A; increasing monensin (25 nM day 4, 50 nM days 5-9), Day 8", "value": 44.9, "unit": "%"}, {"measurement": "Total HM", "setting": "Cells producing MAb A; increasing monensin (25 nM day 4, 50 nM days 5-9), Day 10", "value": 23.2, "unit": "%"}, {"measurement": "Man5", "setting": "Cells producing MAb A; increasing monensin (to 50 nM)", "value": 14.2, "unit": "%"}, {"measurement": "Man6", "setting": "Cells producing MAb A; increasing monensin (to 50 nM)", "value": 3.7, "unit": "%"}, {"measurement": "Man7", "setting": "Cells producing MAb A; increasing monensin (to 50 nM)", "value": 1.9, "unit": "%"}, {"measurement": "Man8a", "setting": "Cells producing MAb A; increasing monensin (to 50 nM)", "value": 0.6, "unit": "%"}, {"measurement": "Man8b", "setting": "Cells producing MAb A; increasing monensin (to 50 nM)", "value": 1.4, "unit": "%"}, {"measurement": "Man9", "setting": "Cells producing MAb A; increasing monensin (to 50 nM)", "value": 0.4, "unit": "%"}]}]}
